These results are taken from ChEMBL document CHEMBL1155531, “Structure guided design of 5-arylindazole glucocorticoid receptor agonists and antagonists” (J Med Chem, 2010).

Series [1] is described as follows: Toxicity in human skeletal muscle cells assessed as increase in glutamine synthase mRNA level after 18 hrs by PCR.
The test system of series [2] is Mus musculus. Briefly: Inhibition of IL1-induced circulating IL6 release in mouse at 10 mg/kg, po. It is filed as functional.
Series [3] in a line: Plasma clearance in DBA1 mouse at 1 mg/kg, po and 1 mg/kg, iv. It is filed as ADME, organism-based.
The nature of series [4]: Antiinflammatory activity in human primary synovial fibroblasts assessed as inhibition of IL1-induced IL8 release after 18 hrs by MSD technology. It is filed as functional.
A further series concerns the target T1, Androgen receptor (Homo sapiens, UniProt P10275).
T1 sequence (P10275 whole entry): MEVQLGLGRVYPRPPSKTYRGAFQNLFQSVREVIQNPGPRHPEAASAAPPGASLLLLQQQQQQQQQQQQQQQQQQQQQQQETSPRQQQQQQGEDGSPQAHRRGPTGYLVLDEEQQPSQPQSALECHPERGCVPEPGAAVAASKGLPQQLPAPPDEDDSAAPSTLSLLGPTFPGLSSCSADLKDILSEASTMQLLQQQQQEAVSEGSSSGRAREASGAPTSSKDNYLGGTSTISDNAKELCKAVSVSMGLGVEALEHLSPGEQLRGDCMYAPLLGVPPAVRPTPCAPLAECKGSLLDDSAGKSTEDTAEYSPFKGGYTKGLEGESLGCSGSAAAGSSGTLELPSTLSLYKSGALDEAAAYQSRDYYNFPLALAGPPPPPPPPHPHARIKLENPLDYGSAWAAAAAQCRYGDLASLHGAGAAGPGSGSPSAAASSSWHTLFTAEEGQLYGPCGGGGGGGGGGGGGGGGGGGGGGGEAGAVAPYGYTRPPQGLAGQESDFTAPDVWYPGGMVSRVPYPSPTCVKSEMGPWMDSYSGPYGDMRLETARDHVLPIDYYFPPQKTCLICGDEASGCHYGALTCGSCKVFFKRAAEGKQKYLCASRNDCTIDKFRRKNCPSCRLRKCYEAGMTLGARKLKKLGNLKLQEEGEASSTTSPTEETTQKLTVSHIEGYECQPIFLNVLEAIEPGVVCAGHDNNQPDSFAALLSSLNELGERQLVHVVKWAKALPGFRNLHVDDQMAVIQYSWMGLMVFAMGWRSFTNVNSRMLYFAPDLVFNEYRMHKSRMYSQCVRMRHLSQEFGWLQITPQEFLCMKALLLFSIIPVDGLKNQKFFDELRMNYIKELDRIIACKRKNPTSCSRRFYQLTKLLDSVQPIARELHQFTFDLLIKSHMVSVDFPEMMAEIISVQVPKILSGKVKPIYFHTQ

The nature of series [5]: Oral bioavailability in CD rat at 1 mg/kg. The settings on record: in vivo. In kind it is ADME, organism-based.
Series [6] in a line: Relative fraction unbound in mouse assessed as ratio of fraction unbound in mouse at 0.1 mg/kg, po to IC50 for NF-kappaB transrepression activity in A549 cells expressing MMTV reporter gene. The arrangement: dose 0.1 mg/kg, route oral. The settings on record: in vivo. It is filed as ADME, organism-based.
For series [7], the system named is Mus musculus. Briefly: Inhibition of IL1-induced circulating IL6 release in mouse at 0.1 mg/kg, po. It is filed as functional.
In a further series the target is T2, Glucocorticoid receptor (Homo sapiens, UniProt P04150).
T2 sequence (P04150 whole entry): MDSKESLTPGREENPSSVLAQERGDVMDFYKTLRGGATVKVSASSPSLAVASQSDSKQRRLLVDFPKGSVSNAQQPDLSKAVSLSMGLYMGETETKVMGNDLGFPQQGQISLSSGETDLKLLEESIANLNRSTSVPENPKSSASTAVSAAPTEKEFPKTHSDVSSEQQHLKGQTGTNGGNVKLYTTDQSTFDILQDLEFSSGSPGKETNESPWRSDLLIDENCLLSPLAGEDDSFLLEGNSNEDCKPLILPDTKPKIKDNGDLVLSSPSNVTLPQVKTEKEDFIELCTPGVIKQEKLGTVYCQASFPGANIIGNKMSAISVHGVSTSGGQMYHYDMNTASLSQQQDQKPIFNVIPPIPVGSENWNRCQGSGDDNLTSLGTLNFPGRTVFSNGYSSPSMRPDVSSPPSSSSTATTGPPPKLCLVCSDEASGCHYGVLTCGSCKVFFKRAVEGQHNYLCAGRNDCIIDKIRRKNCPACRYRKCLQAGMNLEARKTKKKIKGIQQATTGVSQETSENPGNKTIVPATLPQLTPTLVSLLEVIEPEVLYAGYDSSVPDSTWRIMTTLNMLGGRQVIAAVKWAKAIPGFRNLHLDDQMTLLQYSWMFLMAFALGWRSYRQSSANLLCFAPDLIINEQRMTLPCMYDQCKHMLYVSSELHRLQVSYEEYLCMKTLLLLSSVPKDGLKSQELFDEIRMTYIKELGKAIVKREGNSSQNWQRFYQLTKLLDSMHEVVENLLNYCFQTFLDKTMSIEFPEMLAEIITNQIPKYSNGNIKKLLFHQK
Briefly: Agonist activity at GR in human A549 cells transfected with luciferase gene linked to MMTV promoter assessed as luciferase transactivation activity after 24 hrs. It is filed as functional, cell-based.

Series [8] in a line: Plasma concentration in mouse bearing mouse NIH-3T3 cells integrated with MMTV reporter gene at 10 mg/kg, po after 1 hr. In kind it is ADME, organism-based, NIH3T3. The arrangement: dose 10 mg/kg, route oral.
Series [9] is described as follows: Volume of distribution at steady state in CD rat at 1 mg/kg, po and 1 mg/kg, iv. It is filed as ADME, organism-based. To be noted: in vivo, read-out: Vdss.
The nature of series [10]: Relative fraction unbound in mouse assessed as ratio of fraction unbound in mouse at 1 mg/kg, po to IC50 for NF-kappaB transrepression activity in A549 cells expressing MMTV reporter gene. It is filed as ADME, organism-based. Also on record: dose 1 mg/kg, route oral. To be noted: in vivo.
Series [11] deals with Mus musculus. Description: Inhibition of IL1-induced circulating IL6 release in mouse at 100 mg/kg, po. In kind it is functional.
Series [12] in a line: Elimination half life in DBA1 mouse at 1 mg/kg, po and 1 mg/kg, iv. In kind it is ADME, organism-based. The settings on record: in vivo, read-out: beta t1/2 (converted).
Series [13] is described as follows: Relative plasma concentration in mouse assessed as ratio of plasma concentration in mouse at 0.1 mg/kg, po to IC50 for NF-kappaB transrepression activity in A549 cells expressing MMTV reporter gene. Also on record: dose 0.1 mg/kg, route oral. To be noted: in vivo. In kind it is ADME, organism-based. For orientation: In a reporter assay the amount or activity of a reporter protein is the signal.

Series [14] is described as follows: Elimination half life in CD rat at 1 mg/kg, po and 1 mg/kg, iv. The settings on record: in vivo, read-out: beta t1/2 (converted). It is filed as ADME, organism-based.
Series [15] can be described thus: Tmax in DBA1 mouse at 1 mg/kg, po. In kind it is ADME, organism-based. Also on record: dose 1 mg/kg, route oral. The settings on record: in vivo.

Structures are written as SMILES.

What is called inhibition in vivo is the change of the read-out against control, counted positive when it falls. A low value points to a response near the control. As a reminder, the IC50 is the concentration needed to halve the response being measured. The bioavailability is dose-corrected exposure relative to a reference, in per cent. Usually EC50 stands for the concentration needed to bring the measured effect to its halfway point. A word on the Tmax: it is the time from dosing to the highest level.

Take `O=S(=O)(Cc1ccccc1)Nc1ccc(-c2ccc3c(cnn3-c3ccc(F)cc3)c2)c(C(F)(F)F)c1`: the Activity entry in series [1] is “Toxic”. In the series with Mus musculus [2], this compound came in with an inhibition in vivo at 10 mg/kg of 44%. In addition, the clearance in [3] stood at 8 mL/min/kg. The IC50 in series [4] was 0.002 µM; on Androgen receptor it was over 10 µM. The compound also registered a bioavailability in series [5] of over 22%. The “fold change (FC)” value is recorded as 0.005 in series [6], 0.06 in series [10] and 2.5 in [13]. The same compound gave an inhibition in vivo at 0.1 mg/kg in the series on Mus musculus [7] of 0%. Besides, the EC50 on Glucocorticoid receptor is 0.02 µM. Besides, the concentration at 1 h in series [8] was 2730 nM. In addition, the Vd in [9] was determined as 2 L/kg. This compound also returned an inhibition in vivo at 100 mg/kg with Mus musculus [11] of 57%. For the same compound, the half-life is 4 h in [12] and 3.3 h in [14]. Further, the Tmax in series [15] stood at 6 h.
